Earlier results, collected in US20090081206A1, “METHOD AND PHARMACEUTICAL COMPOSITION FOR INHIBITING PREMATURE RAPTURE OF FETAL MEMBRANES, RIPENING OF UTERINE CERVIX AND PRETERM LABOR IN MAMMALS” (priority 1997, published 2009).
Read-outs that look alike come from different tables or passages of the source.

Key:
[1] = severe pregnancy-induced hypertension
[2] = patches, only 13 cases studied
[3] = 3-mg intravaginal pessaries, mixed group of multigravidae and primigravidae
[4] = intravaginal tablets
[5] = for need for additional oxytocin: compared with 100% in placebo
[6] = women with cervical Bishop score of 4-5
[7] = in vivo
[8] = not given; remark: listed apart in the source
[9] = after single 3-mg suppository alone

SMILES	reduction of capillary wedge pressure [1] [%]	reduction of mean arterial blood pressure [1] [%]	suppression of preterm labor, safety and tolerability [2]	success rate for induced labor [3] [%]	mean time to labor [9] [h]	patients in whom labor was achieved [9] [%]	additional oxytocin augmentation needed (multifarious women) [%]	additional oxytocin augmentation needed (nulliparous women) [%]	patients induced successfully (achieving active labor) ([4]; multigravidae, 1-mg group) [%]	patients induced successfully (achieving active labor) ([4]; multigravidae, 5-mg group) [%]	patients induced successfully (achieving active labor) ([4]; primigravidae, 1-mg group) [%]	patients induced successfully (achieving active labor) ([4]; primigravidae, 5-mg group) [%]	established labor and delivered their infants without oxytocin augmentation ([5]; multigravidae, 2.5-mg vaginal suppositories) [%]	need for additional oxytocin ([5]; multigravidae) [%]	established labor and delivered their infants without oxytocin augmentation ([5]; primigravidae, 5-mg vaginal suppositories) [%]	need for additional oxytocin ([5]; primigravidae) [%]	treatment-to-delivery interval ([5]; shorter compared with controls) [h]	vaginal birth within 24 hours [6]	plasma half-life [7] [min]	antidiuretic and pressor activity relative to vasopressin [8] [%]
O=[N+]([O-])OCC(CO[N+](=O)[O-])O[N+](=O)[O-] [GTN, glycerol trinitrate]	30	25	safe, well-tolerated and non-invasive method of suppressing preterm labor	–	–	–	–	–	–	–	–	–	–	–	–	–	–	–	–	–
CCCCC[C@H](O)/C=C/[C@H]1[C@H](O)CC(=O)[C@@H]1C/C=C\CCCC(=O)O [PGE2, prostaglandin E2]	–	–	–	55	1.5	98	14	71	39.1	62.2	29.6	62.9	81	19.1	63	37.5	7.6 to 11.6	17 of 19	–	–
CC[C@H](C)[C@@H]1NC(=O)[C@H](Cc2ccc(O)cc2)NC(=O)[C@@H](N)CSSC[C@@H](C(=O)N2CCC[C@H]2C(=O)N[C@@H](CC(C)C)C(=O)NCC(N)=O)NC(=O)[C@H](CC(N)=O)NC(=O)[C@H](CCC(N)=O)NC1=O [oxytocin]	–	–	–	–	–	–	–	–	–	–	–	–	–	–	–	–	–	8 of 19	5 to 17	1
